The values that follow come from ChEMBL document CHEMBL1142543, “Arabinose 5-phosphate analogues as mechanistic probes for Neisseria meningitidis 3-deoxy-D-manno-octulosonate 8-phosphate synthase” (Bioorg Med Chem, 2008).

In this assay the test system is Neisseria meningitidis MC58. The assay can be described thus: Activity at Neisseria meningitidis B MC58 (ATCC BAA355) recombinant 3-deoxy-D-manno-octulosonate 8-phosphate synthase expressed in Escherichia coli BL21 (DE3).

What is called kcat is the maximal rate divided by the concentration of active sites. Take `O=C[C@@H](O)[C@H](O)[C@H](O)COP(=O)(O)O`: the kcat amounted to 2.7 s⁻¹. The result for `O=C[C@@H](O)[C@H](O)[C@@H](O)COP(=O)(O)O` reads 1.1 s⁻¹.
